Tests used:
Assay in all cases: relative viability (nuclei count vs DMSO), 5 days (fraction); higher = more cells survive
[1] = compound: C1CC(C1)(C(=O)O)C(=O)O.[NH2-].[NH2-].[Pt+2] [Carboplatin] + Nc1ncn([C@H]2C[C@H](O)[C@@H](CO)O2)c(=O)n1 [Decitabine] (partner 2 µM)
Outline: (§1)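 Lung cancer cell lines in 1536-well plates were dosed by pin tool the day after seeding, either with one drug alone or with a fixed anchor-drug dose plus five library-drug doses (not always all listed) in √10 steps. After 5 days, cells were fixed and their nuclei stained in one step (final 0.05% Triton X-100, 1% formaldehyde, 1 ug/ml Hoechst), then counted on 4× images. Relative viability is the nuclei count in treated wells divided by that in vehicle wells. Values are medians of duplicate plates.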

[2] = compound: C1CC(C1)(C(=O)O)C(=O)O.[NH2-].[NH2-].[Pt+2] [Carboplatin] + C[C@@H](Oc1cc(-c2cnn(C3CCNCC3)c2)cnc1N)c1c(Cl)ccc(F)c1Cl [Crizotinib] (partner 1 µM)
Outline: as §1

[3] = compound: NS(=O)(=O)OC[C@@H]1C[C@@H](n2ccc3c(N[C@H]4CCc5ccccc54)ncnc32)C[C@@H]1O [MLN4924] + CC(C)C[C@H](NC(=O)[C@H](Cc1ccccc1)NC(=O)c1cnccn1)B(O)O [Bortezomib] (partner 0.002 µM)
Outline: as §1

[4] = compound: C1CC(C1)(C(=O)O)C(=O)O.[NH2-].[NH2-].[Pt+2] [Carboplatin] + C[C@]1(O)C[C@@H](c2nc(-c3ccc4ccc(-c5ccccc5)nc4c3)c3c(N)nccn32)C1 [Linsitinib] (partner 1 µM)
Outline: as §1

Row | Cell Line | relative viability ([1]; first compound 0.08 µM) | relative viability ([1]; first compound 0.253 µM) | relative viability ([1]; first compound 0.8 µM) | relative viability ([1]; first compound 2.53 µM) | relative viability ([1]; first compound 8 µM) | relative viability ([2]; first compound 0.08 µM) | relative viability ([2]; first compound 0.253 µM) | relative viability ([2]; first compound 0.8 µM) | relative viability ([2]; first compound 2.53 µM) | relative viability ([2]; first compound 8 µM) | relative viability ([3]; first compound 0.04 µM) | relative viability ([3]; first compound 0.1265 µM) | relative viability ([3]; first compound 0.4 µM) | relative viability ([3]; first compound 1.265 µM) | relative viability ([3]; first compound 4 µM) | relative viability ([4]; first compound 0.08 µM) | relative viability ([4]; first compound 0.253 µM) | relative viability ([4]; first compound 0.8 µM) | relative viability ([4]; first compound 2.53 µM) | relative viability ([4]; first compound 8 µM)
1 | NCI-H1355 | 0.337 | 0.379 | 0.329 | 0.333 | 0.28 | 1.16 | 1.18 | 1.02 | 1.02 | 1.02 | 1.1 | 1.23 | 1.12 | 0.54 | 0.178 | 0.971 | 0.805 | 0.838 | 0.869 | 0.727
2 | NCI-H1437 | 0.508 | 0.556 | 0.529 | 0.508 | 0.464 | 0.909 | 0.96 | 0.892 | 0.936 | 0.805 | 0.437 | 0.448 | 0.443 | 0.148 | 0.115 | 1.06 | 1.02 | 0.95 | 0.859 | 0.876
3 | NCI-H1651 | 0.773 | 0.633 | 0.589 | 0.574 | 0.509 | 0.931 | 0.929 | 0.738 | 0.748 | 0.712 | 0.936 | 0.99 | 0.966 | 0.498 | 0.181 | 0.918 | 1.06 | 0.82 | 0.9 | 0.509
4 | NCI-H1666 | 0.715 | 0.824 | 0.774 | 0.752 | 0.653 | 0.997 | 1.07 | 0.838 | 0.917 | 0.568 | 0.542 | 0.491 | 0.348 | 0.183 | 0.27 | 0.823 | 0.879 | 0.747 | 0.794 | 0.458
5 | NCI-H1734 | 0.485 | 0.46 | 0.483 | 0.465 | 0.438 | 0.682 | 0.673 | 0.637 | 0.716 | 0.614 | 0.817 | 0.602 | 0.251 | 0.134 | 0.118 | 0.823 | 0.904 | 0.909 | 0.876 | 0.851
6 | NCI-H1755 | 0.702 | 0.674 | 0.737 | 0.668 | 0.607 | 0.868 | 0.935 | 0.853 | 0.848 | 0.743 | 0.898 | 0.743 | 0.443 | 0.21 | 0.166 | 1.12 | 0.947 | 1.03 | 1.02 | 0.952
